Experimental findings from patent US11077102B2, “Multidose package, course and method of treatment for delivering predetermined multiple doses of a pharmaceutical” (BAUSCH HEALTH IRELAND LIMITED, priority 2009, dated 2021) are described below.

The series is described as follows: Stability of formulation in multi-dose container (Rexam 2.05 mL Sof' Airless). The series is classed as physicochemical. The method, then: Once a candidate package is identified, stability trials are carried out to determine compatibility of the formulation with the container components. Testing is carried out on the formulation packed in the selected containers and stored under a number of controlled conditions (e.g., 40° C./75% RH and 25° C./60% RH) for a specified time up to the expiry date of the product. Tests will include determination of imiquimod content, preservative content, impurity content, appearance, microscopic examination, pH levels and visual container assessment against set standards.
Two batches of Aldara cream were dispensed into Rexam™ 2.05 mL Sof' Airless™ containers. The batches had been previously tested to determine the amount of preservatives (methyl hydroxybenzoate (MHB), propyl hydroxybenzoate (PHB) benzyl alcohol) and imiquimod, at the beginning of the study in Table 4 below.
The batches were stored under various conditions and then analyzed at 2 months, 4 months, 5.5 months and 13 months as shown in Tables 5 to 7 below. The presence of the contaminant 4-OH-R837 was also tested. NOTE: 4-OH-R837 is an Imiquimod impurity.

Each structure is given as a SMILES string.

In the case of `COC(=O)c1ccc(O)cc1` [MHB, methyl hydroxybenzoate], where the note is “up to and including 13 months, both 25 C/60% RH and 40 C/75% RH”, the “Stability in Aldara cream in multi-dose container” value is recorded as “good stability”.
For the molecule `OCc1ccccc1` [Benzyl alcohol, benzyl alcohol], the “Benzyl alcohol levels in Aldara cream in multi-dose container” value (40 C/75% RH, up to 13 months, lower specification limit 1.00% w/w) is reported as “just below the lower specification limit”.
For the molecule `CC(C)Cn1cnc2c(=O)[nH]c3ccccc3c21` [4 Hydroxy Imipquimod, 4-Hydroxyimiquimod], the “Impurity level in Aldara cream in multi-dose container” value (up to and including 13 months) is listed as “below detection limits”.
